Activity calls are given as the source filed them. The rule behind the calls is not given here.
Assays:
[1] = system: SF-539; experiment: Growth inhibition of human SF539 cells assessed as cell growth at 10^-8 M incubated for 48 hrs by sulforhodamine B assay relative to control; type: functional; details: SF-539, 48 h, read-out: Activity
[2] = system: SNB-75; experiment: Growth inhibition of human SNB75 cells assessed as cell growth at 10^-8 M incubated for 48 hrs by sulforhodamine B assay relative to control; type: functional; details: SNB-75, 48 h, read-out: Activity
[3] = system: IGROV-1; experiment: Growth inhibition of human IGROV1 cells assessed as cell growth at 10^-8 M incubated for 48 hrs by sulforhodamine B assay relative to control; type: functional; details: IGROV-1, 48 h, read-out: Activity
[4] = system: HL-60(TB); experiment: Growth inhibition of human HL-60(TB) cells assessed as cell growth at 10^-7 M incubated for 48 hrs by sulforhodamine B assay relative to control; type: functional; details: HL-60, 48 h, read-out: Activity
[5] = system: A549; experiment: Growth inhibition of human A549/ATCC cells assessed as cell growth at 10^-7 M incubated for 48 hrs by sulforhodamine B assay relative to control; type: functional; details: A549, 48 h, read-out: Activity
[6] = system: OVCAR-5; experiment: Growth inhibition of human OVCAR5 cells assessed as cell growth at 10^-7 M incubated for 48 hrs by sulforhodamine B assay relative to control; type: functional; details: OVCAR-5, 48 h, read-out: Activity
[7] = system: NCI/ADR-RES; experiment: Growth inhibition of human NCI/ADR-RES cells assessed as cell growth at 10^-7 M incubated for 48 hrs by sulforhodamine B assay relative to control; type: functional; details: read-out: Activity
[8] = system: KM12; experiment: Growth inhibition of human KM12 cells assessed as cell growth at 10^-6 M incubated for 48 hrs by sulforhodamine B assay relative to control; type: functional; details: KM12, 48 h, read-out: Activity
[9] = system: 786-0; experiment: Growth inhibition of human 786-0 cells assessed as cell growth at 10^-6 M incubated for 48 hrs by sulforhodamine B assay relative to control; type: functional; details: 786-0, 48 h, read-out: Activity
[10] = system: LOX IMVI; experiment: Growth inhibition of human LOXIMVI cells assessed as cell growth at 10^-5 M incubated for 48 hrs by sulforhodamine B assay relative to control; type: functional; details: read-out: Activity
[11] = system: CAKI-1; experiment: Growth inhibition of human Caki1 cells assessed as cell growth at 10^-5 M incubated for 48 hrs by sulforhodamine B assay relative to control; type: functional; details: CAKI-1, 48 h, read-out: Activity
[12] = system: HT-29; experiment: Growth inhibition of human HT-29 cells assessed as cell growth at 10^-4 M incubated for 48 hrs by sulforhodamine B assay relative to control; type: functional; details: HT-29, 48 h, read-out: Activity
[13] = system: OVCAR-8; experiment: Growth inhibition of human OVCAR8 cells assessed as cell growth at 10^-4 M incubated for 48 hrs by sulforhodamine B assay relative to control; type: functional; details: OVCAR-8, 48 h, read-out: Activity
[14] = system: HL-60(TB); experiment: Growth inhibition of human HL-60(TB) cells incubated for 48 hrs by sulforhodamine B assay; type: functional; details: HL-60, 48 h
[15] = system: MOLT-4; experiment: Growth inhibition of human MOLT4 cells incubated for 48 hrs by sulforhodamine B assay; type: functional; details: MOLT-4, 48 h
[16] = system: HCT-116; experiment: Growth inhibition of human HCT116 cells incubated for 48 hrs by sulforhodamine B assay; type: functional; details: HCT-116, 48 h
[17] = system: SK-MEL-2; experiment: Growth inhibition of human SK-MEL-2 cells incubated for 48 hrs by sulforhodamine B assay; type: functional; details: SK-MEL-2, 48 h
[18] = system: SK-MEL-5; experiment: Growth inhibition of human SK-MEL-5 cells incubated for 48 hrs by sulforhodamine B assay; type: functional; details: SK-MEL-5, 48 h
[19] = system: OVCAR-5; experiment: Growth inhibition of human OVCAR5 cells incubated for 48 hrs by sulforhodamine B assay; type: functional; details: OVCAR-5, 48 h
[20] = system: RXF 393; experiment: Growth inhibition of human RXF393 cells incubated for 48 hrs by sulforhodamine B assay; type: functional; details: RXF 393, 48 h
[21] = system: SN12C; experiment: Growth inhibition of human SN12C cells incubated for 48 hrs by sulforhodamine B assay; type: functional
[22] = system: UO-31; experiment: Growth inhibition of human UO31 cells incubated for 48 hrs by sulforhodamine B assay; type: functional; details: UO-31, 48 h
[23] = system: DU-145; experiment: Growth inhibition of human DU145 cells incubated for 48 hrs by sulforhodamine B assay; type: functional; details: DU-145, 48 h
[24] = system: MDA-MB-435; experiment: Antiproliferative activity against human MDA-MB-435 cells after 24 hrs by MTT assay; type: functional
[25] = system: HL-60; experiment: Induction of apoptosis in human HL60 cells assessed as early apoptotic cells by propidium iodide/Annexin V staining based flow cytometry (reference value: 0.37%); type: functional
[26] = system: MDA-MB-435; experiment: Induction of apoptosis in human MDA-MB-435 cells assessed as increase in gammaH2ax expression by qRT-PCR method; type: functional, cell-based
[27] = target: Histone deacetylase 3 (Homo sapiens, UniProt O15379); experiment: Inhibition of HDAC3 (unknown origin) by ELISA
[28] = read-out: LC50 (the source's name)
[29] = read-out: pLC50 (the source's name) (converted)

Histone deacetylase 3, sequence (O15379 whole entry): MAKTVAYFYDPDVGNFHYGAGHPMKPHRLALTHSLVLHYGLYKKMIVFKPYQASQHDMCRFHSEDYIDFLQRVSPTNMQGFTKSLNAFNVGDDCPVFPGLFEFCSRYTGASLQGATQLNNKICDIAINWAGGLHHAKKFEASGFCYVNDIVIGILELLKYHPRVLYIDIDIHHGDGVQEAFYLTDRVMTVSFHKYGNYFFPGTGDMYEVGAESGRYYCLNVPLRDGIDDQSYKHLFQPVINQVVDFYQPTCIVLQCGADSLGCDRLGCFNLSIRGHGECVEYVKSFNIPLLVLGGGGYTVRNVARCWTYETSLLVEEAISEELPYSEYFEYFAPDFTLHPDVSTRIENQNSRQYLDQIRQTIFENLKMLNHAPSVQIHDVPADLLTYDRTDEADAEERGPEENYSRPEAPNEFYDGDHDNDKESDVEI

CCS/C(Nc1ccccc1)=C(\C#N)C(=O)N/N=C\c1ccc(Cl)cc1Cl
growth at 0.01 µM [1]: 105%
growth at 0.01 µM [2]: 88%
growth at 0.01 µM [3]: 106%
growth at 0.1 µM [4]: 91%
growth at 0.1 µM [5]: 92%
growth at 0.1 µM [6]: 96%
growth at 0.1 µM [7]: 97%
growth at 1 µM [8]: 90%
growth at 1 µM [9]: 83%
growth at 10 µM [10]: 39%
growth at 10 µM [11]: 23%
growth at 100 µM [12]: 9%
growth at 100 µM [13]: 20%
GI50 ([14]; read-out: GI50): 3.2 µM
CC50 [14, 28]: > 100 µM
TGI ([14]; read-out: TGI): > 100 µM
GI50 ([14]; read-out: pGI50 (converted)): 3.24 µM
CC50 [14, 29]: > 100 µM
TGI ([14]; read-out: pTGI): > 100 µM
GI50 ([15]; read-out: GI50): 3.48 µM
CC50 [15, 28]: > 100 µM
TGI ([15]; read-out: TGI): > 100 µM
GI50 ([15]; read-out: pGI50 (converted)): 3.47 µM
CC50 [15, 29]: > 100 µM
TGI ([15]; read-out: pTGI): > 100 µM
GI50 ([16]; read-out: GI50): 2.99 µM
CC50 [16, 28]: > 100 µM
TGI ([16]; read-out: TGI): > 100 µM
GI50 ([16]; read-out: pGI50 (converted)): 3.02 µM
CC50 [16, 29]: > 100 µM
TGI ([16]; read-out: pTGI (converted)): > 100 µM
GI50 ([17]; read-out: GI50): 3.24 µM
CC50 [17, 28]: > 100 µM
TGI ([17]; read-out: TGI): 43.6 µM
GI50 ([17]; read-out: pGI50 (converted)): 3.24 µM
CC50 [17, 29]: > 100 µM
TGI ([17]; read-out: pTGI): 43.7 µM
GI50 ([18]; read-out: GI50): 2.28 µM
CC50 [18, 28]: > 100 µM
TGI ([18]; read-out: TGI): 8.54 µM
GI50 ([18]; read-out: pGI50 (converted)): 2.29 µM
CC50 [18, 29]: > 100 µM
TGI ([18]; read-out: pTGI (converted)): 8.51 µM
GI50 ([19]; read-out: GI50): 8.25 µM
CC50 [19, 28]: > 100 µM
TGI ([19]; read-out: TGI): > 100 µM
GI50 ([19]; read-out: pGI50 (converted)): 8.32 µM
CC50 [19, 29]: > 100 µM
TGI ([19]; read-out: pTGI): > 100 µM
GI50 ([20]; read-out: GI50): 2.06 µM
CC50 [20, 28]: > 100 µM
TGI ([20]; read-out: TGI): 8.65 µM
GI50 ([20]; read-out: pGI50 (converted)): 2.04 µM
CC50 [20, 29]: > 100 µM
TGI ([20]; read-out: pTGI (converted)): 8.71 µM
GI50 ([21]; read-out: GI50): 6.92 µM
CC50 [21, 28]: > 100 µM
TGI ([21]; read-out: TGI): > 100 µM
GI50 ([21]; read-out: pGI50 (converted)): 6.92 µM
CC50 [21, 29]: > 100 µM
TGI ([21]; read-out: pTGI): > 100 µM
GI50 ([22]; read-out: GI50): 6.91 µM
CC50 [22, 28]: > 100 µM
TGI ([22]; read-out: TGI): > 100 µM
GI50 ([22]; read-out: pGI50 (converted)): 6.92 µM
CC50 [22, 29]: > 100 µM
TGI ([22]; read-out: pTGI): > 100 µM
GI50 ([23]; read-out: GI50): 3.57 µM
CC50 [23, 28]: > 100 µM
TGI ([23]; read-out: TGI): > 100 µM
GI50 ([23]; read-out: pGI50 (converted)): 3.55 µM
CC50 [23, 29]: > 100 µM
TGI ([23]; read-out: pTGI (converted)): > 100 µM
Activity [24]: Dose-dependent effect
GI50 ([24]; Homo sapiens, MDA-MB-435, 24 h): 0.42 µM
Activity [25]: 7.69%
Activity [26]: Active
IC50 [27]: 0.032 µM

— ChEMBL document CHEMBL4145553, “Design, synthesis, and biological evaluation of novel amide and hydrazide based thioether analogs targeting Histone deacteylase (HDAC) enzymes” (Eur J Med Chem, 2018)
